Assay results reported in US5484772A, “Antithrombotic agents” (Eli Lilly and Company, priority 1994, dated 1996).

Experiments:
Type in all cases: biochemical
[1] = molecular target: T1, Human plasmin (Homo sapiens, UniProt P00747); assay: Plasmin amidase inhibition, chromogenic substrate (Kass); details: apparent association constant; Hydrochloride
T1 construct: Human plasmin is purchased from Boehringer Mannheim; purchased Boehringer Mannheim, Indianapolis, Ind

[2] = molecular target: human thrombin (Homo sapiens, UniProt P00734); assay: Thrombin amidase inhibition, chromogenic substrate (Kass); details: apparent association constant, mean over a range of concentrations; Hydrochloride
Protocol: The assay is carried out by mixing 50 μl buffer (0.03M Tris, 0.15M NaCl, pH 7.4), 25 μl of human thrombin solution (purified human thrombin, Enzyme Research Laboratories, South Bend, Ind., at 8 NIH units/ml) and 25 μl of test compound in a solvent (in 50% aqueous methanol, v:v). Then 150 μl of an aqueous solution of the chromogenic substrate (at 0.25 mg/ml) are added and the rates of hydrolysis of the substrate are measured by monitoring the reactions at 405 nm for the release of p-nitroaniline. Standard curves are constructed by plotting free thrombin concentration against hydrolysis rate. The hydrolysis rates observed with test compounds are then converted to free thrombin values in the respective assays by use of the standard curves. The bound thrombin (bound to test compound) is calculated by subtracting the amount of free thrombin observed in each assay from the known initial amount of thrombin used in the assay. The amount of free inhibitor in each assay is calculated by subtracting the number of moles of bound thrombin from the number of moles of added inhibitor (test compound).
The Kass value is the hypothetical equilibrium constant for the reaction between thrombin and the test compound (I). [formula] Kass is calculated for a range of concentrations of test compounds and the mean value is reported in units of liter per mole.

[3] = molecular target: T2, Human factor Xa (Homo sapiens, UniProt P00742); assay: Factor Xa amidase inhibition, chromogenic substrate (Kass); details: apparent association constant; Hydrochloride
T2 construct: Human factors X, Xa, IXa, XIa, and XIIa are purchased; purchased Enzyme Research Laboratories, South Bend, Ind
T2 sequence (P00742 235-488 limits assumed): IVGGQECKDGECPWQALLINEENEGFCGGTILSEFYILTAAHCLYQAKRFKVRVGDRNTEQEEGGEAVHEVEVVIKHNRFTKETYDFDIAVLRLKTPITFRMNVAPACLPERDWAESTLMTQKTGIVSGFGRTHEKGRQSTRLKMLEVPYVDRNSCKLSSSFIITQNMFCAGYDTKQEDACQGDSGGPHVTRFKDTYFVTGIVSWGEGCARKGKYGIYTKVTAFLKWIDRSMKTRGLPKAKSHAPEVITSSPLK
T2 sequence (P00742 41-179 limits assumed): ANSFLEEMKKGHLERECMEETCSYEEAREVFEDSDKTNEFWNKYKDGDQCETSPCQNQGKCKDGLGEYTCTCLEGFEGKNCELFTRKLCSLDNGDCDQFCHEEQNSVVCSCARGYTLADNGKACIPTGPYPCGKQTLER

[4] = molecular target: T3, Bovine trypsin (Bos taurus, UniProt P00760); assay: Trypsin amidase inhibition, chromogenic substrate (Kass); details: apparent association constant; Hydrochloride
T3 construct: purchased Worthington Biochemicals, Freehold, N.J
T3 sequence (P00760 24-246): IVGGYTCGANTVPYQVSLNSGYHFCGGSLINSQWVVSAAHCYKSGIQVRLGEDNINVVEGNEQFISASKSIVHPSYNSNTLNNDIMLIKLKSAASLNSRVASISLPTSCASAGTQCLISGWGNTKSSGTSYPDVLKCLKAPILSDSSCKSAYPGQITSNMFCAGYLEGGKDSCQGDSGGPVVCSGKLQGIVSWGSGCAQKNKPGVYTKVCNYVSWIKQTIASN

[5] = tested on: Human plasma; assay: Human plasma anticoagulation, prothrombin time (PT); details: concentration required to double PT, linear extrapolation, Hydrochloride
Protocol: (§1) Dog plasma and rat plasma are obtained from conscious mixed-breed hounds (either sex, hazelton-LRE, Kalamazoo, Mich., U.S.A.) or from anesthetized male Sprague-Dawley rats (Harlan Sprague-Dawley, Inc., Indianapolis, Ind., U.S.A.) by venipuncture into 3.8 percent citrate. Fibrinogen is prepared from in-date ACD human blood as the fraction I-2 according to previous procedures and specifications. Smith, Blochem. J., 185, 1-11 (1980); and Smith, et al., Biochemistry, 11, 2958-2967 (1972). Human fibrinogen is also purchased as 98 percent pure/plasmin free from American Diagnostica, Greenwich, Conn. Coagulation reagents ACTIN, Thromboplastin, and Human plasma are from Baxter Healthcare Corp., Dade Division, Miami, Fla. Bovine thrombin from Parke-Davis (Ann Arbor, Mich.) is used for coagulation assays in plasma.
(§2) Coagulation assay procedures are as previously described. Smith, et al., Thrombosis Research, 50, 163-174 (1988). […] The prothrombin time (PT) is measured by adding 0.05 ml saline and 0.05 ml Thromboplastin-C reagent to 0.05 ml test plasma. The activated partial thromboplastin time (APTT) is measured by incubation of 0.05 ml test plasma with 0.05 ml Actin reagent for 120 seconds followed by 0.05 ml CaCl2 (0.02M). The thrombin time (TT) is measured by adding 0.05 ml saline and 0.05 ml thrombin (10 NIH units/ml) to 0.05 ml test plasma. […]

[6] = tested on: Human plasma; assay: Human plasma anticoagulation, thrombin time (TT); details: concentration required to double thrombin time, linear extrapolation, Hydrochloride
Protocol: as §1, §2

[7] = molecular target: T4, t-PA (Homo sapiens, UniProt P00750); assay: t-PA amidase inhibition, chromogenic substrate (Kass); details: apparent association constant; Hydrochloride
T4 construct: purchased American Diagnostica, Greenwich, Conn
T4 sequence (P00750 36-562): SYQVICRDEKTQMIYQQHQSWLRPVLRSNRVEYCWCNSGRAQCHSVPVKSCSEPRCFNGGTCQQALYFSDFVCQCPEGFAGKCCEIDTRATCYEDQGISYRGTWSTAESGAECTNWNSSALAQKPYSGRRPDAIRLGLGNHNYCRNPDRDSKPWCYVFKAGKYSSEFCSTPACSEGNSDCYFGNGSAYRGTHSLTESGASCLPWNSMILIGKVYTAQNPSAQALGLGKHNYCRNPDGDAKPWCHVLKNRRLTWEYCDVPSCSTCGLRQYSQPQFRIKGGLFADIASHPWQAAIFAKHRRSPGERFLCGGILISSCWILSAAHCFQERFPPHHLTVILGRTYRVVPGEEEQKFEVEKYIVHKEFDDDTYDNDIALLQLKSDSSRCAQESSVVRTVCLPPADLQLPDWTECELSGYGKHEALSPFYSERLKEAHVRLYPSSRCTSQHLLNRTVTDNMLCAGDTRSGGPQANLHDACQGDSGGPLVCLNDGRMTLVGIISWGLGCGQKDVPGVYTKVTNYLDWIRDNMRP

[8] = tested on: Human plasma; assay: Human plasma anticoagulation, activated partial thromboplastin time (APTT); details: concentration required to double APTT, linear extrapolation, Hydrochloride
Protocol: as §1, §2

T1 sequence (P00747 581-810 limits assumed): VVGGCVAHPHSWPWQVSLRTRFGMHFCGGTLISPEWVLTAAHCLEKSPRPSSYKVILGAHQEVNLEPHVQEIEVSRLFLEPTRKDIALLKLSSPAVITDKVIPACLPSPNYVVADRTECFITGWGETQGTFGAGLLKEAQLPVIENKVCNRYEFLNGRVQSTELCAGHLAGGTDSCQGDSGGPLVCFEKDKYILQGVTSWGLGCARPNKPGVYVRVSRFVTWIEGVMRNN
T1 sequence (P00747 97-580 limits assumed): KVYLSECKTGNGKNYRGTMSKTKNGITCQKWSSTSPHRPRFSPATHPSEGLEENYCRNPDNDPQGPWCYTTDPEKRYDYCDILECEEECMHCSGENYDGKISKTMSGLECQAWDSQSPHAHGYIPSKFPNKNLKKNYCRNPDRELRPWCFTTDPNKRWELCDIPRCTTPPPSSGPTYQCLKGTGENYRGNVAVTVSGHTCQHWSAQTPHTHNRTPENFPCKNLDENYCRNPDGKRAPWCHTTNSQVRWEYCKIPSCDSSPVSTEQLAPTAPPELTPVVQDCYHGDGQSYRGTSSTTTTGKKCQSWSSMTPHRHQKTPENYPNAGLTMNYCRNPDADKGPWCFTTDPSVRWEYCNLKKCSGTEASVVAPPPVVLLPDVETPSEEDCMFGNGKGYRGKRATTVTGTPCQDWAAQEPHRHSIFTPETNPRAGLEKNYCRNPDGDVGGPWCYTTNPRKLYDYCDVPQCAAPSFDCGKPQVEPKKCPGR

| SMILES | Kass Plasmin [1] [L/mol × 10^6] | Kass Human Thrombin [2] [L/mol × 10^6] | Kass Xa [3] [L/mol × 10^6] | Kass Trypsin [4] [L/mol × 10^6] | 2 × Clotting time PT [5] | 2 × Clotting time TT [6] [ng/mL] | Kass t-PA [7] [L/mol × 10^6] | 2 × Clotting time APTT [8] |
| --- | --- | --- | --- | --- | --- | --- | --- | --- |
| CCOC(=O)NC(CC)(Cc1ccccc1)C(=O)N1CCC[C@H]1C(=O)N[C@H](C=O)CCCNC(=N)N.Cl (stereo partly drawn) [Example 13, N-Ethoxycarbonyl-L-phenylalanyl (αethyl)-L-prolinyl-L-arginine Aldehyde Hydrochloride] | 0.12 | 57 | 0.036 | 4.9 | 3,300 ng/mL | 93 | 0.002 |  |
| CCOC(=O)N[C@@H](Cc1ccccc1)C(=O)N1CCC[C@@]1(C)C(=O)N[C@H](C=O)CCCNC(=N)N.Cl [Example 5, N-Ethoxycarbonyl-L-phenylalanyl (αmethyl)-L-prolinyl-L-arginine Aldehyde Hydrochloride] | 0.059 | 75 | 0.044 | 2.4 | 2,200 ng/mL | 48 | 0.00079 | 2,500 ng/mL |
